# System: C57BL/6J and C3H/HeJ primary bone marrow-derived macrophages
substance,measurement,value
brefeldin A [BFA],Effect of BFA alone on viability,no effect
same,Susceptibility of resistant macrophages to intoxication with LF in the presence of BFA,completely susceptible
